{
  "source": "patent US20120121691A1",
  "about": "“Method for Increasing the Production of a Specific ACYL-Chain Dihydroceramide(s) for Improving the Effectiveness of Cancer Treatments” (priority 2010, published 2012)",
  "key": {"[1]": {"test_system": "intracellular sphingolipids, CCRF-CEM cells", "assay": "LC/MS/MS analysis of intracellular sphingolipids, CCRF-CEM", "format": "cell-based, human", "details": "for increase in corresponding dihydroceramide over sphinganine plus GT-11 alone: fatty acid in addition to sphinganine plus GT-11, six hours, P<0.05", "protocol": "LC/MS/MS analysis of intracellular sphingolipids. Sphingolipids were separated using an Agilent 1200 HPLC (LC) and determined by ESI/MS/MS performed on a AB SCIEX 4000 QTRAP Hybrid Triple Quadrupole/Linear Ion Trap mass spectrometer (MS), operating in a multiple reaction monitoring positive ionization mode as described previously with moderate modifications (25). Briefly, 50 μL of a solution (1 μM) of internal sphingolipid standards (including -sphingosine, -sphinganine, -sphingosine-1-phosphate, and -ceramide) was added to each cell pellet sample. Lipids of each sample were extracted twice with 2 mL of the ethyl acetate/isopropyl alcohol/water (60:28:12; v:v) solvent system. Supernatants were transferred to glass tubes (Kimble Chase) and evaporated under air (10 PSI) at 40° C. After reconstitution in methanol (4 mL), 1 ml of each sample was separated for the determination of lipid phosphate. Remaining sample (3 mL) was dried and used for sphingolipid quantification. For ESI/MS/MS, the dried lipid sample was dissolved in mobile phase A. Samples were injected (10 μL) and separated on a Spectra C8SR, 150×3.0 mm, 3-μm particle size column using gradient-elution (mobile phase A/B, prepared as previously described).\nData acquisition, peak integration and analyte quantitation were performed using ABI/SCIEX Analyst 1.4.2 Software. Sphingolipid data were normalized to lipid phosphate as previously described (26). Briefly, samples were dried under air (10 PSI) and lipids were extracted using the method of Bligh and Dyer (27). Of importance for phosphate assay, only Kimble Chase disposable borosilicate tubes were used for minimal sample contamination. Organic phase was transferred to glass tubes and a known volume was separated to a new tube and dried at 80° C. Phosphate standards and dried samples were then heated with ashing buffer (water:10 N:70% [40:9:1]) at 160° C. overnight. Samples were then incubated with ammonium molybdate and ascorbic acid as previously described, and absorbance ([…]) was read using a SpectraMax.\nCCRF-CEM cells were treated with drug/fatty acid vehicles (control), GT-11 (0.5 μM) alone, sphinganine (4 μM) alone or sphinganine (4 μM) plus GT-11 (0.5 μM) for six hours and subsequently prepared for sphingolipid analysis.\nCCRF-CEM cells were treated with GT-11 (0.5 μM) alone, sphinganine (1 μM) alone or sphinganine (1 μM) plus GT-11 (0.5 μM) for six hours and prepared for quantitative analysis. DHCers were normalized to control and plotted as fold change (bar, z-axis). * indicates significance, with P<0.05. […] CCRF-CEM cells were treated with sphinganine (1 μM) plus GT-11 (0.5 μM) with and without specific solubilized fatty acids (carbon chain length (CX) and saturation (:X), Ex: C20:1=fatty acid with 20 carbons and one desaturation) for six hours and prepared for quantitative sphingolipid analysis. Dihydroceramides were normalized to control cells that received sphinganine plus GT-11 with no fatty acid and plotted as fold change (bar, z-axis). * indicates significance, with P<0.05."}, "COG-LL-317": {"test_system": "COG-LL-317", "assay": "DIMSCAN cytotoxicity assay, COG-LL-317", "format": "cell-based", "details": "COG-LL-317, sphinganine 1 μM, GT-11 0.5 μM, 48 hours", "text": "(§1) Cell culture. The pre-T acute lymphoblastic leukemia cell lines MOLT-4 and CCRF-CEM, small cell lung cancer cell line NCI-H146, non-small cell lung cancer cell line NCI-H1792, colon cancer cell lines LoVo and HT-29, and breast cancer cell line MCF-7, were purchased from American Type Culture Collection, Manassas, Va., and grown at 20%/5% and 5%/5%, respectively. COG-LL-317 and COG-LL-332 pre-T acute lymphoblastic leukemia cell lines were obtained from the TTUHSC Cancer Center Cell Repository and grown at 5%/5%. Cell line identities were verified by short tandem repeat analysis and mycoplasma testing was performed. Cell lines were maintained in RPMI-1640 medium supplemented with 10% fetal bovine serum (FBS, Invitrogen) in humidified, 37° C. incubators. For all experiments, ALL cell lines were seeded at 2. cells/mL in RPMI-1640 medium supplemented with 15% fetal bovine serum. Solid tumor cell lines were plated at 5×cells/mL in RPMI-1640 medium supplemented with 10% fetal bovine serum.\n(§2) Cytotoxicity Assay. Cytoxicity is determined using the DIMSCAN assay system (R. Proffitt et al., Cytometry 24, 204-213 (1996); T. Frgala et al., Proc. AACR, 36, 303 (1995). The system employs digital imaging microscopy to quantify viable cells, which selectively accumulate fluorescein diacetate to become brightly fluorescent. The system is capable of measuring cytotoxicity over a 4-5 log dynamic range by quenching the residual fluorescence of dead and dying cells with eosin Y and quantifying the total fluorescence of viable cells using digital thresholding. Measured fluorescence is directly proportionate to the number of viable cells. A comparison of the total fluorescence of a drug-treated cell population to the fluorescence of a similar number of untreated cells yields a survival fraction. […]\n(§3) The addition of C22:0-fatty acid, but not C18:0 or C22:1 fatty acids, increased cytotoxicity (FIGS. 7A-7F). […] Cytotoxicity was measured using DIMSCAN, and data was normalized to control and plotted as survival fraction (y-axis). […]"}, "[2]": {"test_system": "MCF-7 breast cancer cells", "assay": "DIMSCAN cytotoxicity assay, MCF-7", "format": "cell-based", "details": "MCF-7, fatty acid 5 micromolar", "text": "as §1\n(§4) Cytotoxicity Assay. Cytoxicity is determined using the DIMSCAN assay system (R. Proffitt et al., Cytometry 24, 204-213 (1996); T. Frgala et al., Proc. AACR, 36, 303 (1995). The system employs digital imaging microscopy to quantify viable cells, which selectively accumulate fluorescein diacetate to become brightly fluorescent. The system is capable of measuring cytotoxicity over a 4-5 log dynamic range by quenching the residual fluorescence of dead and dying cells with eosin Y and quantifying the total fluorescence of viable cells using digital thresholding. Measured fluorescence is directly proportionate to the number of viable cells. A comparison of the total fluorescence of a drug-treated cell population to the fluorescence of a similar number of untreated cells yields a survival fraction.\n(§5) In brief, 5,000 to 25,000 cells/well depending on the cell line (5,000 for solid tumor, 25,000 for ALL cell lines) were replicate plated into 60 wells of a 96-well tissue culture plate in 0.1 cc media and allowed to attach or recover overnight. […]"}, "[3]": {"test_system": "pre-T acute lymphoblastic leukemia cell lines CCRF-CEM, MOLT-4, COG-LL-317 and COG-LL-332", "assay": "DIMSCAN cytotoxicity assay across the four pre-T ALL cell lines", "format": "cell-based, human", "details": "COG-LL-317, COG-LL-332, CCRF-CEM, 4-HPR 0-9 μM, 48 hours", "text": "as §1, with “For all experiments, ALL cell lines were seeded at 2. cells/mL in RPMI-1640 medium supplemented with 15% fetal bovine serum. Solid tumor cell lines were plated at 5×cells/mL in RPMI-1640 medium supplemented with 10% fetal bovine serum.” left out\nas §2, with “cells.” for “cells. A comparison of the total fluorescence of a drug-treated cell population to the fluorescence of a similar number of untreated cells yields a survival fraction.”"}, "[4]": {"test_system": "NCI-H146 small cell lung cancer cells", "assay": "DIMSCAN cytotoxicity assay, NCI-H146", "format": "cell-based, human", "details": "NCI-H146, fatty acid 5 micromolar", "text": "as §1\nas §4, with “cells.” for “cells. A comparison of the total fluorescence of a drug-treated cell population to the fluorescence of a similar number of untreated cells yields a survival fraction.”\n(§6) In brief, 5,000 to 25,000 cells/well depending on the cell line (5,000 for solid tumor, 25,000 for ALL cell lines) were replicate plated into 60 wells of a 96-well tissue culture plate in 0.1 cc media and allowed to attach or recover overnight. Drug(s) are then added in 0.05 cc media to the final concentrations indicated. […] Total fluorescence of viable cells is then measured by digital imaging microscopy and the signal normalized to control cells. […]"}, "MOLT-4 ALL cells": {"test_system": "MOLT-4 ALL cells", "assay": "DIMSCAN cytotoxicity assay, MOLT-4", "format": "cell-based, human", "details": "MOLT-4, sphinganine 1 μM, GT-11 0.5 μM, 48 hours", "text": "as §1, §2, §3"}, "LoVo colon cancer cells": {"test_system": "LoVo colon cancer cells", "assay": "DIMSCAN cytotoxicity assay, LoVo", "format": "cell-based, human", "details": "fatty acid 5 micromolar", "text": "as §1\nas §4, with “cells.” for “cells. A comparison of the total fluorescence of a drug-treated cell population to the fluorescence of a similar number of untreated cells yields a survival fraction.”\nas §6"}, "[5]": {"test_system": "NCI-H1792 non-small cell lung cancer cells", "assay": "DIMSCAN cytotoxicity assay, NCI-H1792", "format": "cell-based", "details": "NCI-H1792, fatty acid 5 micromolar", "text": "as §1, §4, §5"}, "COG-LL-332": {"test_system": "COG-LL-332", "assay": "DIMSCAN cytotoxicity assay, COG-LL-332", "format": "cell-based", "details": "COG-LL-332, sphinganine 1 μM, GT-11 0.5 μM, 48 hours", "text": "as §1, §2, §3"}, "CCRF-CEM": {"test_system": "CCRF-CEM", "protocol": "Statistical analyses. Descriptive statistics and significance testing were performed using Microsoft Excel. The Excel function “t.test” was used for Student's T-testing (two-tailed, type-2). Propagated standard deviations were calculated using standard methods. Correlation analyses were performed using Sigmaplot 11 software. […]\nDue to the confounding effect of in vitro fatty acid conversion, correlation analyses were used to identify significant relationships between absolute levels of specific sphingolipids and cytotoxicity. […]"}},
  "data": [
    {"molecule": "CCCCCCCCCCCCCC(=O)O", "note": "[C14:0-fatty acid]", "values": [
      {"measurement": "increase in corresponding dihydroceramide over sphinganine plus GT-11 alone", "setting": "[1]", "result": "significant increases"}
    ]},
    {"molecule": "CCCCCCCCCCCCCCCC(=O)O", "note": "[C16:0-fatty acid]", "values": [
      {"measurement": "increase in corresponding dihydroceramide over sphinganine plus GT-11 alone", "setting": "[1]", "result": "significant increases"}
    ]},
    {"molecule": "CCCCCCCCCCCCCCCCCC(=O)O", "note": "[C18:0-fatty acid]", "values": [
      {"measurement": "effect of fatty acid co-treatment on cytotoxicity of sphinganine with GT-11", "setting": "COG-LL-317", "result": "not"},
      {"measurement": "effect of fatty acid on fenretinide cytotoxicity", "setting": "[2]", "result": "did not increase cytotoxicity"},
      {"measurement": "effect of fatty acid on fenretinide (4-HPR) cytotoxicity", "setting": "[3]", "result": "not"},
      {"measurement": "effect of fatty acid on fenretinide cytotoxicity", "setting": "[4]", "result": "did not increase cytotoxicity"},
      {"measurement": "effect of fatty acid co-treatment on cytotoxicity of sphinganine with GT-11", "setting": "MOLT-4 ALL cells", "result": "not"},
      {"measurement": "effect of fatty acid on fenretinide cytotoxicity", "setting": "LoVo colon cancer cells", "result": "did not increase cytotoxicity"},
      {"measurement": "effect of fatty acid on fenretinide cytotoxicity", "setting": "[5]", "result": "did not increase cytotoxicity"},
      {"measurement": "effect of fatty acid co-treatment on cytotoxicity of sphinganine with GT-11", "setting": "COG-LL-332", "result": "not"}
    ]},
    {"molecule": "CCCCCCCCCCCCCCCCCCCC(=O)O", "note": "[C20:0-fatty acid]", "values": [
      {"measurement": "increase in C22:0-DHCer over sphinganine plus GT-11 alone", "setting": "[1]; fatty acid 5 μM in addition to sphinganine 1 μM plus GT-11 0.5 μM, six hours, P<0.001", "result": 12, "unit": "fold"},
      {"measurement": "increase in corresponding dihydroceramide over sphinganine plus GT-11 alone", "setting": "[1]", "result": "significant increases"}
    ]},
    {"molecule": "CCCCCCCCCCCCCCCCCCCCCCCC(=O)O", "note": "[C24:0-fatty acid]", "values": [
      {"measurement": "effect of fatty acid on fenretinide cytotoxicity", "setting": "[2]", "result": "did not increase cytotoxicity"},
      {"measurement": "effect of fatty acid on fenretinide cytotoxicity", "setting": "[4]", "result": "did not increase cytotoxicity"},
      {"measurement": "increase in corresponding dihydroceramide over sphinganine plus GT-11 alone", "setting": "[1]", "result": "significant increases"},
      {"measurement": "effect of fatty acid on fenretinide cytotoxicity", "setting": "LoVo colon cancer cells", "result": "did not increase cytotoxicity"},
      {"measurement": "effect of fatty acid on fenretinide cytotoxicity", "setting": "[5]", "result": "did not increase cytotoxicity"}
    ]},
    {"molecule": "CCCCCCCC/C=C\\CCCCCCCCCCCCCC(=O)O", "note": "[C24:1-fatty acid]", "values": [
      {"measurement": "increase in corresponding dihydroceramide over sphinganine plus GT-11 alone", "setting": "[1]", "result": "significant increases"}
    ]},
    {"molecule": "CCCCCCCCCCCCCCC[C@@H](O)[C@@H](N)CO", "note": "[Sphinganine, (2S,3R)-2-aminooctadecane-1,3-diol, reference compound]", "values": [
      {"measurement": "increase of total ceramide", "setting": "[1]; sphinganine 4 μM alone, six hours, normalized to control, P<0.001", "result": 1.5, "unit": "fold"},
      {"measurement": "Pearson Coef. (r), sphingolipid level vs cytotoxicity", "setting": "CCRF-CEM", "result": "−0.21"},
      {"measurement": "Spearman Coef. (ρ), sphingolipid level vs cytotoxicity", "setting": "CCRF-CEM", "result": "−0.30"}
    ]}
  ]
}
